From US11059784B2, “Oxime ether compounds” (BRISTOL-MYERS SQUIBB COMPANY, priority 2017, dated 2021)

Assays:
[1] = Pulmonary Toxicity Assay (bronchoalveolar lavage protein); assay type: in vivo, rats; conditions: 24 hr post-dose
Experimental: The analysis of protein levels in bronchoalveolar lavage (BAL) fluid obtained from an animal were used to gauge pulmonary side effects. Increased levels of protein in BAL fluid were indicative of undesired edematous pulmonary effects, such as pulmonary edema.
Example 3 was administered orally to rats at doses of 0.3, 1.0, 10, 30 mg/kg and 2-amino-2-[2-(4-octylphenyl)ethyl]-1,3-propanediol, hydrochloride (CAS: 162359-56-0) was administered at 3.0 mg/kg as a solution in the vehicle. At 24 hours post dose, the rats were then euthanized by barbiturate overdose. The trachea was exposed by incision of the overlying skin and then cannulated. The lungs were lavaged with 4 mL of saline. The recovered lavage fluid was assayed for total protein content. The concentration of the BAL protein in the recovered BAL fluid was determined on an Advia 1800 Chemistry Analyzer (Siemens Healthcare Diagnostics). The results represent the average results of all animals within each treatment group (n=2-4).

[2] = test system: blood lymphocytes; assay: Blood Lymphocyte Reduction (BLR) assay in rodent; assay type: in vivo, Lewis rats; conditions: 24 hr post-dose; for Percent reduction vs. vehicle control: Table C study
[3] = molecular target: T1, S1P1 (Homo sapiens (Human), UniProt P21453); assay: S1P1 Binding Assay (33P-S1P ligand competition, CHO membranes); conditions: membranes from CHO cells expressing human S1P1
Experimental: Membranes were prepared from CHO cells expressing human S1P1. Cells pellets (1×10^9 cells/pellet) were suspended in buffer containing 20 mM HEPES (4-(2-hydroxyethyl)-1-piperazineethanesulfonic acid), pH 7.5, 50 mM NaCl, 2 mM EDTA (ethylenediamine tetraacetic acid) and Protease Inhibitor cocktail (Roche), and disrupted on ice using the Polytron homogenizer. The homogenate was centrifuged at 20,000 rpm (48,000 g) and the supernatant was discarded. The membrane pellets were resuspended in buffer containing 50 mM HEPES, pH 7.5, 100 mM NaCl, 1 mM MgCl2, 2 mM EDTA and stored in aliquots at −80° C. after protein concentration determination.
Membranes (2 μg/well) and 0.03 nM final concentration of ^33P-S1P ligand (1 mCi/ml, Perkin Elmer or American Radiolabeled Chemicals) diluted in assay buffer (50 mM HEPES, pH7.4, 5 mM MgCl2, 1 mM CaCl2), 0.5% fatty acid free BSA (bovine serum albumin), 1 mM NaF) were added to the compound plates (384 Falcon v-bottom plate (0.5 μl/well in a 11 point, 3-fold dilution). Binding was performed for 45 minutes at room temperature, terminated by collecting the membranes onto 384-well Millipore FB filter plates, and radioactivity was measured by TOPCOUNT®. The competition data of the test compounds over a range of concentrations was plotted as percentage inhibition of radioligand specific binding. The IC50 is defined as the concentration of competing ligand needed to reduce specific binding by 50%.

[4] = molecular target: T1, S1P1; assay: Receptor [35S] GTPγS Binding Assay, S1P1; assay type: biochemical; conditions: membranes from S1P1/CHO cells
Experimental: (§1) Receptor [^35S] GTPγS Binding Assays:
(§2) Compounds were loaded in a 384 Falcon v-bottom plate (0.5 μl/well in an 11 point, 3-fold dilution). Membranes prepared from S1P1/CHO cells or EDG3-Gal5-bla HEK293T cells (EDG3 equivalent S1P3) were added to the compound plate ([…], final protein 3 μg/well) with MULTIDROP®. [^35S]GTP (1250 Ci/mmol, Perkin Elmer) was diluted in assay buffer: 20 mM HEPES, pH7.5, 10 mM MgCl2, 150 mM NaCl, 1 mM EGTA (ethylene glycol tetraacetic acid), 1 mM DTT (Dithiothreitol), 10 μM GDP, 0.1% fatty acid free BSA, and 10 μg/ml Saponin to 0.4 nM. 40 μl of the [35S] GTP solution was added to the compound plate with a final concentration of 0.2 nM. The reaction was kept at room temperature for 45 min. At the end of incubation, all the mixtures in the compound plate were transferred to Millipore 384-well FB filter plates via the VELOCITY11 ® Vprep liquid handler. The filter plate was washed with water 4 times by using the manifold Embla plate washer and dried at 60° C. for 45 min. MicroScint 20 scintillation fluid (30 μl) was added to each well for counting on the Packard TOPCOUNT®. EC50 is defined as the agonist concentration that corresponds to 50% of the Ymax (maximal response) obtained for each individual compound tested.
A smaller value for GTPγS S1P1 EC50 value indicated greater activity for the compound in the GTPγS S1P1 binding assay. Thus the compounds of the present invention may be used in treating, preventing, or curing various S1P1 receptor-related conditions. The compounds have potential use in treating, preventing, or curing autoimmune and inflammatory diseases such as multiple sclerosis, rheumatoid arthritis, inflammatory bowel disease, lupus, psoriasis, or minimizing or reducing rejection of transplanted organs.

[5] = molecular target: S1P3 (Homo sapiens (Human), UniProt Q99500); assay: Receptor [35S] GTPγS Binding Assay, S1P3; assay type: biochemical; conditions: membranes from EDG3-Gal5-bla HEK293T cells
Experimental: as §1, §2

[6] = test system: blood lymphocytes; assay: Blood Lymphocyte Reduction (BLR) assay in rodent; assay type: in vivo, Lewis rats; conditions: 24 hr post-dose, Table B study; for Percent reduction vs. control: hydrochloride
Experimental: Blood Lymphocyte Reduction (BLR) assay in rodent:
Lewis rats were dosed orally with vehicle alone (polyethylene glycol 300, “PEG300”) or with the comparative compound 2-amino-2-[2-(4-octylphenyl)ethyl]-1,3-propanediol, hydrochloride (“FTY” CAS: […]) as a solution in the vehicle at doses of 0.1 mg/kg, 0.5 mg/kg and 3.0 mg/kg. The results are provided in Table Band the level of lymphocyte reduction at 24 hours post-dose was maximal at 3.0 mg/kg. The percent reduction in lymphocytes is dose-related but the relationship is not linear, with non-proportional increases in dose being required to elicit sequentially greater reductions in lymphocyte counts.

T1 sequence (P21453 whole entry): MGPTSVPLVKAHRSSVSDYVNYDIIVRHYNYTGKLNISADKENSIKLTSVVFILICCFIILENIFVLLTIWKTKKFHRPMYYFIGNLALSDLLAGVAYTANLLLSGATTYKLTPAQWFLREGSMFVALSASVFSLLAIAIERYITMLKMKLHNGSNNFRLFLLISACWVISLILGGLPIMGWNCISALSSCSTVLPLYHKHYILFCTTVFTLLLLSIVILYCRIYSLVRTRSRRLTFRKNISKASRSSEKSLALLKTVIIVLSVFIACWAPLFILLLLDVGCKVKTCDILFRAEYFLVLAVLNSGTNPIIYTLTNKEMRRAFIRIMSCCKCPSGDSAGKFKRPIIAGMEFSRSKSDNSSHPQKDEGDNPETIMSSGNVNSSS
S1P3, sequence (Q99500 whole entry): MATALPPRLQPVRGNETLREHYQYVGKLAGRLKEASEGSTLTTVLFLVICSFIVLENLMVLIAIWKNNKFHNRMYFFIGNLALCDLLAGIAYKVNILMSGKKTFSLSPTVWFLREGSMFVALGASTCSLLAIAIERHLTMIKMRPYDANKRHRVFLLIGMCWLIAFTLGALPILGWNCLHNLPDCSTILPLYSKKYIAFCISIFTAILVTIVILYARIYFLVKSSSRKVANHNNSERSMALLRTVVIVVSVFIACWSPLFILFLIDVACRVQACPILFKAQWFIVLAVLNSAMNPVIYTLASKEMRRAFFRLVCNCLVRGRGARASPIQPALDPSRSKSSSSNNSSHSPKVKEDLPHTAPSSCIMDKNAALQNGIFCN

Structure (SMILES)	IC50 [3] [nM]	EC50 [4] [nM]	EC50 [5] [nM]	other results
CC(=NOCCc1ccccc1)c1ccc(C2CCC(N)(CO)C2)cc1.Cl (centres unmarked) [Example 3, 1-(4-(3-amino-3-(hydroxymethyl)cyclopentyl)phenyl)ethanone O-phenethyl Oxime]				Relative BAL protein vs. control ([1]; 0.3 mg/kg oral): 0.8; Relative BAL protein vs. control ([1]; 1 mg/kg oral): 0.8; Relative BAL protein vs. control ([1]; 10 mg/kg oral): 1.2; Relative BAL protein vs. control ([1]; 30 mg/kg oral): 1.3; Percent reduction vs. vehicle control ([2]; 0.3 mg/kg): 29%; Percent reduction vs. vehicle control ([2]; 1 mg/kg): 62%; level of lymphocyte reduction (in words) ([2]; 10 mg/kg and 30 mg/kg): maximal level of lymphocyte reduction comparable to the reduction shown by FTY; Percent reduction vs. vehicle control ([2]; 10 mg/kg): 85%; Percent reduction vs. vehicle control ([2]; 30 mg/kg): 85%
C/C(=N\OCc1ccc(C2CCCCC2)c(C(F)(F)F)c1)c1ccc(C(=O)N2CCCC(N)(COP(=O)(O)O)C2)cc1 (single isomer, unassigned) [Example 67, (E)-(3-amino-1-(4-(1-(((4-cyclohexyl-3-(trifluoromethyl)benzyl)oxy)imino)ethyl)benzoyl)piperidin-3-yl)methyl dihydrogen phosphate]	120	754	> 18000	
C/C(=N\OCCCc1ccccc1)c1ccc(C(=O)N2CCC(N)(COP(=O)(O)O)C2)cc1 (single isomer, unassigned) [Example 62, (E)-(3-amino-1-(4-(1-((3-phenylpropoxy)imino)ethyl)benzoyl)pyrrolidin-3-yl)methyl dihydrogen phosphate]	1470	504	> 6250	
CC(=NOCC1CCCCC1)c1ccc([C@@H]2CC[C@](N)(COP(=O)(O)O)C2)cc1 [Example 44]	15.1	20.3	> 60000	
C/C(=N\OCCCc1ccccc1)c1ccc(S(=O)(=O)N2CCC(N)(COP(=O)(O)O)CC2)cc1 [Example 71, (E)-(4-amino-1-((4-(1-((3-phenylpropoxy)imino)ethyl)phenyl)sulfonyl)piperidin-4-yl)methyl dihydrogen phosphate]	219	242	> 18000	
COc1cccc(CO/N=C(\C)c2ccc([C@@H]3CC[C@](N)(COP(=O)(O)O)C3)cc2)c1 [Example 50, ((1R,3R)-1-amino-3-(4-((E)-1-(((3-methoxybenzyl)oxy)imino)ethyl)phenyl)cyclopentyl) methyl dihydrogen phosphate]	563	630	> 60000	
CC(=NOCCOc1ccccc1)c1ccc([C@@H]2CC[C@](N)(COP(=O)(O)O)C2)cc1 [Example 46, ((1R,3R)-1-amino-3-(4-(1-((2-phenoxyethoxy)imino)ethyl)phenyl)cyclopentyl) methyl dihydrogen phosphate]	5.2	11.2	> 60000	
CCCCCCCCc1ccc(CCC(N)(CO)CO)cc1.Cl [FTY, 2-amino-2-[2-(4-octylphenyl)ethyl]-1,3-propanediol, hydrochloride]				Rat Blood Lymphocyte Reduction Assay, Compound Mean ([6]; 0.1 mg/kg oral): 2.78; Percent reduction vs. control ([6]; 0.1 mg/kg oral): 69%; Percent reduction vs. control ([6]; 0.1 mg/kg oral, listed as 2-amino-2-[2-(4-octylphenl)pethyl]-1,3-propanediol): 69%; Rat Blood Lymphocyte Reduction Assay, Compound Mean ([6]; 0.5 mg/kg oral): 1.64; Percent reduction vs. control ([6]; 0.5 mg/kg oral): 82%; Percent reduction vs. control ([6]; 0.5 mg/kg oral, listed as 2-amino-2-[2-(4-octylphenl)pethyl]-1,3-propanediol): 82%; Rat Blood Lymphocyte Reduction Assay, Compound Mean ([6]; 3.0 mg/kg oral): 1.02; Percent reduction vs. control ([6]; 3.0 mg/kg oral): 89%; Percent reduction vs. control ([6]; 3.0 mg/kg oral, listed as 2-amino-2-[2-(4-octylphenl)pethyl]-1,3-propanediol): 89%; Relative BAL protein vs. control ([1]; 3 mg/kg oral): 1.8; Percent reduction vs. vehicle control ([2]; 3 mg/kg): 87%
CC(=NOCc1ccc(C(F)(F)F)cc1)c1ccc([C@@H]2CC[C@](N)(COP(=O)(O)O)C2)cc1 [Example 45, ((1R,3R)-1-amino-3-(4-(1-(((4-(trifluoromethyl)benzyl)oxy)imino)ethyl)phenyl)cyclopentyl)methyl dihydrogen phosphate]	2.7	5.6	> 60000	
C/C(=N\OCc1ccc(C2CCCCC2)c(C(F)(F)F)c1)c1ccc(C(=O)N2CCC(N)(COP(=O)(O)O)CC2)cc1 [Example 58, (E)-(4-amino-1-(4-(1-(((4-cyclohexyl-3-(trifluoromethyl)benzyl)oxy)imino)ethyl)benzoyl)piperidin-4-yl)methyl dihydrogen phosphate]	10.7	60.8	> 3120	
C/C(=N\OCCc1ccccc1)c1ccc([C@@H]2CC[C@](N)(COP(=O)(O)O)C2)cc1 [Example 72, ((1R,3R)-1-amino-3-(4-((E)-1-(phenethoxyimino)ethyl)phenyl)cyclopentyl)methyl dihydrogen phosphate]	61.6	91.5	> 30000	
CC/C(=N\OCCCc1ccccc1)c1ccc(C(=O)N2CCC(N)(COP(=O)(O)O)C2)cc1 (single isomer, unassigned) [Example 63, (E)-(3-amino-1-(4-(1-((3-phenylpropoxy)imino)propyl)benzoyl)pyrrolidin-3-yl) methyl dihydrogen phosphate]	183	342	> 6250	
